This assay has as its system HIV-1 IIIB (T-tropic, CXCR4 utilizing). The experiment in a line: HOS HIV-1 infectivity assay. The class given is cell-based. To be noted: Human immunodeficiency virus 1, IIIB; as determined by the infectivity assay; strain not stated in Table 2; read-out: Activity Level. Here is the method:
Compounds were profiled against two HIV-1 viruses, the M-tropic (CCR5 utilizing) Ba-L strain and the T-tropic (CXCR4 utilizing) IIIB strain. Both viruses were propagated in human peripheral blood lymphocytes. Compounds were tested for there ability to block infection of the HOS cell line (expressing hCXCR4/hCCR5/hCD4/pHIV-LTR-luciferase) by either HIV-1 Ba-L or HIV-1 IIIB. Compound cytotoxicity was also examined in the absence of virus addition.
HOS cells (expressing hCXCR4/hCCR5/hCD4/pHIV-LTR-luciferase) were harvested and diluted in Dulbeccos modified Eagles media supplemented with 2% FCS and non-essential amino acid to a concentration of 60,000 cells/ml. The cells were plated into 96-well plates (100 ul per well) and the plates were placed in a tissue culture incubator (37° C.; 5% CO2/95% air) for a period of 24 h.
Subsequently, 50 ul of the desired drug solution (4 times the final concentration) was added to each well and the plates were returned to the tissue culture incubator (37° C.; 5% CO2/95% air) for 1 h. Following this incubation 50 ul of diluted virus was added to each well (approximately 2 million RLU per well of virus). The plates were returned to the tissue culture incubator (37° C.; 5% CO2/95% air) and were incubated for a further 96 h.
Following this incubation the endpoint for the virally infected cultures was quantified following addition of Steady-Glo Luciferase assay system reagent (Promega, Madison, Wis.). Cell viability or non-infected cultures was measured using a CellTiter-Glo luminescent cell viability assay system (Promega, Madison, Wis.). All luminescent readouts are performed on a Topcount luminescence detector (Packard, Meridien, Conn.).

SMILES strings stand for the structures. Where only a bound is given, the exact number is not on record here.

Regarding `CN(Cc1nc2c(NC(=O)[C@@H]3CCCN3C)cccc2[nH]1)C1CCCc2cccnc21` (stereo partly drawn) [Example 104, 1-Methyl-N-(2-{[methyl(5,6,7,8-tetrahydro-8-quinolinyl)amino]methyl}-1H-benzimidazol-4-yl)-L-prolinamide], the IC50 lay within 100 to 500 nM. The same measure for `CN(Cc1nc2c(NC(=O)C(C)(C)N)cccc2[nH]1)C1CCCc2cccnc21` (stereo not drawn) [Example 105, 2-Methyl-N-1-(2-{[methyl(5,6,7,8-tetrahydro-8-quinolinyl)amino]methyl}-1H-benzimidazol-4-yl)alaninamide]: 100 to 500 nM; for `CN(C)CCCNc1cccc2[nH]c(CN(C)C3CCCc4cccnc43)nc12` (stereo not drawn) [Example 106, [3-(Dimethylamino)propyl](2-{[methyl(5,6,7,8-tetrahydro-8-quinolinyl)amino]methyl}-1H-benzimidazol-4-yl)amine]: 100 to 500 nM; for `CN(C)CCNc1cccc2[nH]c(CN(C)C3CCCc4cccnc43)nc12` (stereo not drawn) [Example 107, [2-(Dimethylamino)ethyl](2-{[methyl(5,6,7,8-tetrahydro-8-quinolinyl)amino]methyl}-1H-benzimidazol-4-yl)amine]: less than 100 nM. As to `CNCCN(C)c1cccc2[nH]c(CN(C)C3CCCc4cccnc43)nc12` (stereo not drawn) [Example 108, Methyl[2-(methylamino)ethyl](2-{[methyl(5,6,7,8-tetrahydro-8-quinolinyl)amino]methyl}-1H-benzimidazol-4-yl)amine], the IC50 was less than 100 nM.

As to `CN(C)CCN(C)c1cccc2[nH]c(CN(C)C3CCCc4cccnc43)nc12` (stereo not drawn) [Example 109, [2-(Dimethylamino)ethyl]methyl(2-{[methyl(5,6,7,8-tetrahydro-8-quinolinyl)amino]methyl}-1H-benzimidazol-4-yl)amine], the IC50 is less than 100 nM. Consider `CC(=O)N1CCN(c2cccc3[nH]c(CN(C)C4CCCc5cccnc54)nc23)CC1` (stereo not drawn) [Example 110, N-{[4-(4-Acetyl-1-piperazinyl)-1H-benzimidazol-2-yl]methyl}-N-methyl-5,6,7,8-tetrahydro-8-quinolinamine], for which the IC50 fell in the range of 100 to 500 nM. Under `CC(C)N1CCN(c2cccc3[nH]c(CN(C)C4CCCc5cccnc54)nc23)CC1` (stereo not drawn) [Example 111, N-Methyl-N-({4-[4-(1-methylethyl)-1piperazinyl]-1H-benzimidazol-2-yl}methyl)-5,6,7,8-tetrahydro-8-quinolinamine] stands less than 100 nM; under `CC(C)N(Cc1nc2c(N3CCN(C)CC3)cccc2[nH]1)C1CCCc2cccnc21` (stereo not drawn) [Example 112, N-(1-Methylethyl)-N-{[4-(4-methyl-1-piperazinyl)-1H-benzimidazol-2-yl]methyl}-5,6,7,8-tetrahydro-8-quinolinamine], less than 100 nM; under `CC(C)N1CCN(c2cccc3[nH]c(CN(C(C)C)C4CCCc5cccnc54)nc23)CC1` (stereo not drawn) [Example 113, N-(1-methylethyl)-N-({4-[4-(1-methylethyl)-piperazinyl]-1H-benzimidazol-2-yl}methyl)-5,6,7,8-tetrahydro-8-quinolinamine], less than 100 nM. Turning to `CN1CCN(c2cccc3nc(C(C)(C)NC4CCCc5cccnc54)[nH]c23)CC1` (stereo not drawn) [Example 114, N-{1-methyl-1-[4-(4-methyl-1-piperazinyl)-1H-benzimidazol-2-yl]ethyl}-5,6,7,8-tetrahydro-8-quinolinamine], the IC50 was less than 100 nM.

As for `CN1CCN(c2cccc3nc(C(C)(C)N(C)C4CCCc5cccnc54)[nH]c23)CC1` (stereo not drawn) [Example 115, N-Methyl-N-{1-methyl-1-[4-(4-methyl-1-piperazinyl)-1H-benzimidazol-2-yl]ethyl}-5,6,7,8-tetrahydro-8-quinolinamine], the IC50 is less than 100 nM. `CN(Cc1nc2c(N3CCN(C(=O)CN)CC3)cccc2[nH]1)C1CCCc2cccnc21` (stereo not drawn) [Example 116, N-({4-[4-(Aminoacetyl)-1-piperazinyl]-1H-benzimidazol-2-yl}methyl)-N-methyl-5,6,7,8-tetrahydro-8-quinolinamine]: the IC50 is less than 100 nM. Under `CN(Cc1nc2c(N3CCN(C(=O)c4ccccn4)CC3)cccc2[nH]1)C1CCCc2cccnc21` (stereo not drawn) [Example 117, N-Methyl-N-({4-[4-(2-pyridinylcarbonyl)-1-piperazinyl]-1H-benzimidazol-2-yl}methyl)-5,6,7,8-tetrahydro-8-quinolinamine] stands 100 to 500 nM; under `CN1CCN(c2cccc3nc(CN(C)[C@@H]4CCCc5cccnc54)[nH]c23)CC1` [Example 133A, (8R)—N-Methyl-N-{[4-(4-methyl-1-piperazinyl)-1H-benzimidazol-2-yl]methyl}-5,6,7,8-tetrahydro-8-quinolinamine], less than 100 nM; under `CN1CCN(c2cccc3nc(CN(C)[C@H]4CCCc5cccnc54)[nH]c23)CC1` [Example 133B, (8S)—N-Methyl-N-{[4-(4-methyl-1-piperazinyl)-1H-benzimidazol-2-yl]methyl}-5,6,7,8-tetrahydro-8-quinolinamine], less than 100 nM. As for `CCN(Cc1nc2cccc(N3CCN(C)CC3)c2[nH]1)[C@@H]1CCCc2cccnc21` [Example 134, (8R)—N-Ethyl-N-{[4-(4-methyl-1-piperazinyl)-1H-benzimidazol-2-yl]methyl}-5,6,7,8-tetrahydro-8-quinolinamine], the IC50 is less than 100 nM. On to `CCN(Cc1nc2cccc(N3CCN(C)CC3)c2[nH]1)[C@H]1CCCc2cccnc21` [Example 135, (8S)—N-Ethyl-N-{[4-(4-methyl-1-piperazinyl)-1H-benzimidazol-2-yl]methyl}-5,6,7,8-tetrahydro-8-quinolinamine], for which the IC50 was less than 100 nM. The same measure for `CCCN(Cc1nc2cccc(N3CCN(C)CC3)c2[nH]1)[C@@H]1CCCc2cccnc21` [Example 136, (8R)—N-{[4-(4-methyl-1-piperazinyl)-1H-benzimidazol-2-yl]methyl}-N-propyl-5,6,7,8-tetrahydro-8-quinolinamine]: less than 100 nM; for `CCCN(Cc1nc2cccc(N3CCN(C)CC3)c2[nH]1)[C@H]1CCCc2cccnc21` [Example 137, (8S)—N-{[4-(4-methyl-1-piperazinyl)-1H-benzimidazol-2-yl]methyl}-N-propyl-5,6,7,8-tetrahydro-8-quinolinamine]: less than 100 nM; for `CC(C)N(Cc1nc2cccc(N3CCN(C)CC3)c2[nH]1)[C@H]1CCCc2cccnc21` [Example 138, (8S)—N-(1-Methylethyl)-N-{[4-(4-methyl-1-piperazinyl)-1H-benzimidazol-2-yl]methyl}-5,6,7,8-tetrahydro-8-quinolinamine]: less than 100 nM.

In the case of `CN1CCN(c2cccc3nc(CN(CC4CC4)[C@@H]4CCCc5cccnc54)[nH]c23)CC1` [Example 139, (8R)—N-(Cyclopropylmethyl)-N-{[4-(4-methyl-1-piperazinyl)-1H-benzimidazol-2-yl]methyl}-5,6,7,8-tetrahydro-8-quinolinamine], the IC50 is less than 100 nM. With `CN1CCN(c2cccc3nc(CN(CC4CC4)[C@H]4CCCc5cccnc54)[nH]c23)CC1` [Example 140, (8S)—N-(Cyclopropylmethyl)-N-{[4-(4-methyl-1-piperazinyl)-1H-benzimidazol-2-yl]methyl}-5,6,7,8-tetrahydro-8-quinolinamine], the IC50 is less than 100 nM. In the case of `CN(Cc1nc2cccc(N3CCN4CCC[C@@H]4C3)c2[nH]1)[C@H]1CCCc2cccnc21` [Example 141, (8S)—N-({4-[(8aR)-hexahydropyrrolo[1,2-a]pyrazin-2(1H)-yl]-1H-benzimidazol-2-yl}methyl)-N-methyl-5,6,7,8-tetrahydro-8-quinolinamine], the IC50 was less than 100 nM.
